# Data taken from patent US20220251625A1, “NOVEL DIAGNOSTIC MARKER FOR PANCREATIC CANCER” (URTESTE S.A., priority 2019, published 2022).
# Where “and” joins values, the source holds several entries; their conditions need not be identical. Equal values may be shown once. Numbered stars: 1 amine (or outer) side, 2 acyl side, 3 side chain; on linkers, the order of the positions; unused ones are H or OH. Square brackets hold non-standard residues; d marks the D form. Ends that are not written are not given here. Benzoyl(5-NH,2-NO2) = O=C(c1cc(N[*:1])ccc1[N+](=O)[O-])[*:2]; 2Abz = Nc1ccccc1C(=O)O
# Key:
# Format in all cases: biochemical, human
# [1] = tested on: proteolytic enzymes in urine; test: Degree of substrate hydrolysis versus pH of the reaction environment; parameters: degree of substrate hydrolysis: unit not given here; conditions: for degree of substrate hydrolysis: triplicate
# Method: Tested pH values are indicated on the x-axis. The relationship between proteolytic activity and pH of reaction environment was assessed.
# [2] = tested on: proteolytic enzymes in urine; test: Hydrolysis of chromogenic peptide substrate in urine samples, absorbance at 405 nm; conditions: urine samples from healthy individuals (15 samples)
# [3] = tested on: proteolytic enzymes in urine; test: as above; parameters: rate of hydrolysis of substrate: unit not given here; conditions: for rate of hydrolysis of substrate: triplicate, 37° C., pH 8.0, 405 nm
# Method: Arabic numbers indicate the number of the selected urine sample. […] The result indicates the absence of proteolytic enzymes characteristic of pancreatic cancer.
# Arabic numbers indicate the number of the selected urine sample. A similar result as described above for FIG. 1 is obtained.
# The study on the application of new compounds was performed on a group of 10 patients diagnosed with pancreatic cancer. For this purpose, the compound with formula 2: ABZ-Thr-Thr-Ala-Arg-ANB-NH2 or formula 3: ABZ-Thr-Thr-Ala-Arg-pNA was dissolved in dimethyl sulfoxide (at a concentration of 0.5 mg/mL); 50 μL of this solution was mixed with 120 μl buffer (200 mM Tris-HCl, pH 8.0) and 80 μL of urine of a person with pancreatic cancer. The measurement was made in a 96-well plate designed for measuring absorbance, and each sample was analysed in triplicate at 37° C. The duration of the measurement was 60 minutes. During the measurement, the wavelength characteristic of the released chromophore (ANB-NH2 or pNA) was monitored at 405 nm (range 380-430 nm).
# As a result of the measurement, the colour of the solution increased over time in all urine samples from patients diagnosed with pancreatic cancer. The observed absorbance increase over time was different for each of the tested samples.
# [4] = tested on: proteolytic enzymes in urine; test: RP HPLC analysis of substrate hydrolysis in urine of a person diagnosed with pancreatic cancer; conditions: urine from a person diagnosed with pancreatic cancer
# Method: A: ABZ-Thr-Thr-Ala-Arg-ANB NH2 substrate in 200 mM Tris-HCl buffer, pH 8.0. B: Hydrolysis of ABZ-Thr-Thr-Ala-Arg-ANB NH2 substrate in urine of patients diagnosed with pancreatic cancer.
# [5] = urine sample 1, patient diagnosed with pancreatic cancer
# [6] = urine sample 3, patient diagnosed with pancreatic cancer
# [7] = urine sample 4, patient diagnosed with pancreatic cancer
# [8] = urine sample 5, patient diagnosed with pancreatic cancer
# [9] = urine sample 6, patient diagnosed with pancreatic cancer
# [10] = urine sample 7, patient diagnosed with pancreatic cancer
# [11] = urine sample 8, patient diagnosed with pancreatic cancer
# [12] = urine sample 9, patient diagnosed with pancreatic cancer
# [13] = urine sample 10, patient diagnosed with pancreatic cancer
Substance,"rate of hydrolysis of substrate [3, 5]","rate of hydrolysis of substrate [3, 6]","rate of hydrolysis of substrate [3, 7]","rate of hydrolysis of substrate [3, 8]","rate of hydrolysis of substrate [3, 9]","rate of hydrolysis of substrate [3, 10]","rate of hydrolysis of substrate [3, 11]","rate of hydrolysis of substrate [3, 12]","rate of hydrolysis of substrate [3, 13]",cleavage products by RP HPLC [4],further results
"ABZ-Thr-Thr-Ala-Arg-ANB-NH2 ([2Abz]TTAR-{Benzoyl(5-NH,2-NO2)-NH2}) [chromogenic peptide; ABZ is 2-aminobenzoic acid, ANB-NH2 is amide of 5-amino-2-nitrobenzoic acid]",0.128 and 0.152 and 0.2109,0.07457 and 0.07826 and 0.07178,0.03727 and 0.03636 and 0.03044,0.02734 and 0.01944 and 0.02312,0.04416 and 0.04476 and 0.04487,0.02666 and 0.02332 and 0.025,0.02045 and 0.02486 and 0.02345,0.00647 and 0.00797 and 0.00596,0.08668 and 0.1146 and 0.08522,break down into the ABZ-Thr-Thr-Ala-Arg peptide fragment and chromophore,relationship between proteolytic activity and pH of reaction environment [1]: maximum activity at alkaline pH; degree of substrate hydrolysis ([1]; pH 3): 0; degree of substrate hydrolysis ([1]; pH 4): 0; degree of substrate hydrolysis ([1]; pH 5): 0; degree of substrate hydrolysis ([1]; pH 6): 0; degree of substrate hydrolysis ([1]; pH 7): 0; degree of substrate hydrolysis ([1]; pH 8): 0.07661 and 0.07534 and 0.09735; degree of substrate hydrolysis ([1]; pH 9): 0; increase in absorbance (hydrolysis of the test compound) [2]: does not lead to an increase in absorbance; hydrolysis of the substrate / increase of colour (absorbance) over time ([3]; urine of patients diagnosed with pancreatic cancer (samples 1-10)): all samples 1-10 disintegrated
ABZ-Thr-Thr-Ala-Arg-pNA,0.22 and 0.189 and 0.2109,0.01632 and 0.01669 and 0.01723,0.01727 and 0.01636 and 0.01044,0.05734 and 0.05944 and 0.06152,0.05416 and 0.05476 and 0.05487,0.02666 and 0.02332 and 0.025,0.02045 and 0.02486 and 0.02345,0.01947 and 0.01797 and 0.01896,0.1167 and 0.1146 and 0.1052,break down into the ABZ-Thr-Thr-Ala-Arg peptide fragment and chromophore,"rate of hydrolysis of substrate ([3]; urine sample 2, patient diagnosed with pancreatic cancer): 0.07457 and 0.07826 and 0.07178"
